According to patent US20090298820A1, “3-SUBSTITUTED-1H-PYRROLO[2,3-B]PYRIDINE AND 3-SUBSTITUTED-1H-PYRROLO[3,2-B]PYRIDINE COMPOUNDS, THEIR USE AS MTOR KINASE AND PI3 KINASE INHIBITORS, AND THEIR SYNTHESES” (Wyeth, priority 2008, published 2009):

Key:
Format in all cases: biochemical
mTOR = mTOR (Homo sapiens, UniProt P42345); assay: mTOR enzyme assay (DELFIA format, His6-S6K substrate); details: read-out: mTOR Kinase Median IC50
PI3Kγ = PI3Kγ (Homo sapiens, UniProt P48736); assay: PI3K-gamma fluorescence polarization assay; details: read-out: PI3Kγ Median IC50
PI3Kα = PI3Kα (Homo sapiens, UniProt P42336); assay: PI3K-alpha fluorescence polarization assay; details: read-out: PI3Kα Median IC50
Chain of PI3Kα (P42336 whole entry, species assumed): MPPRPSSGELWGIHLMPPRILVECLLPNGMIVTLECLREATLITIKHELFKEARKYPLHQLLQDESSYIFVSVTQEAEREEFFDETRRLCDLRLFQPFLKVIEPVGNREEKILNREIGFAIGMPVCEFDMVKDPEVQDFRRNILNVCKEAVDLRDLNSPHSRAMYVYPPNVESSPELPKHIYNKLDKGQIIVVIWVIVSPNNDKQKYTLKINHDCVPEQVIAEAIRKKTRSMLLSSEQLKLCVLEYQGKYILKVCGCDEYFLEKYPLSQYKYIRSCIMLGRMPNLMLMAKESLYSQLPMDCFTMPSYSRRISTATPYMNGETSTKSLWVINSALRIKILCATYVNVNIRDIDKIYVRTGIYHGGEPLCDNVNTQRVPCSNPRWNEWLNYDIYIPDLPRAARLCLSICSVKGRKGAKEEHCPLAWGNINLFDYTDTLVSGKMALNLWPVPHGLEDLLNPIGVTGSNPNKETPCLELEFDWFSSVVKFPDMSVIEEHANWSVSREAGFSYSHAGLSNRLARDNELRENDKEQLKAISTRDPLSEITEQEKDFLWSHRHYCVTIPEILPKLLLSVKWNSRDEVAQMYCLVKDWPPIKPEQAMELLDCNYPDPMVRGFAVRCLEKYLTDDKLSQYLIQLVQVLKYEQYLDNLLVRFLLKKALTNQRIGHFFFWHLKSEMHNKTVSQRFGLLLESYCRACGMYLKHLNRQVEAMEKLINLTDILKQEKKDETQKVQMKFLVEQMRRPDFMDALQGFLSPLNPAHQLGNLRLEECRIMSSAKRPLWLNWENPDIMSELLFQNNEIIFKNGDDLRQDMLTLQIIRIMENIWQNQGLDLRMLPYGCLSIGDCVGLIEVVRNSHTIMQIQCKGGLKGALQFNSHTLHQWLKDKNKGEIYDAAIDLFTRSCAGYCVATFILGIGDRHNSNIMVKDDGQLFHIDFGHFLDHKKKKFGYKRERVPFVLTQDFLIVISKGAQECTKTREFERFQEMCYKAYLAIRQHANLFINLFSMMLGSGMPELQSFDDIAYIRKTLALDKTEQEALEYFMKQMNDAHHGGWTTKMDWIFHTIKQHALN
Chain of PI3Kα (P27986 whole entry partner, species assumed): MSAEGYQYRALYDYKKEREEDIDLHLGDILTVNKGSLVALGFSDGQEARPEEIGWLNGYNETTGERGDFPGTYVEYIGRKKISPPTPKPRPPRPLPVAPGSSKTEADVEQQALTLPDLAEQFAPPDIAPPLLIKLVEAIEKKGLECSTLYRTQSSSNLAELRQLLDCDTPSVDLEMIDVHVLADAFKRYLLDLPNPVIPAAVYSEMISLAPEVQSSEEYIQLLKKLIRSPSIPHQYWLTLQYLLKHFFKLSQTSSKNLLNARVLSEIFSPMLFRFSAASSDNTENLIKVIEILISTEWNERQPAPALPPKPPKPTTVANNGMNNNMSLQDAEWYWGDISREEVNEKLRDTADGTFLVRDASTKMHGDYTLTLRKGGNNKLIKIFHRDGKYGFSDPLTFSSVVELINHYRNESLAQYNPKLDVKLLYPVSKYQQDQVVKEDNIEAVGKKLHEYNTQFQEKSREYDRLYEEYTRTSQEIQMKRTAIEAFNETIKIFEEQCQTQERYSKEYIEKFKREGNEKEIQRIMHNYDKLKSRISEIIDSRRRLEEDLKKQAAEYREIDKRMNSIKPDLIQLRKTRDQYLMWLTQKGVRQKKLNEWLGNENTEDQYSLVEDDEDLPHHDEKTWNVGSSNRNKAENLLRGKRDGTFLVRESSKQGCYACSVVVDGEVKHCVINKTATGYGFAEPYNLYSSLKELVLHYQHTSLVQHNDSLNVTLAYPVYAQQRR

Chain of PI3Kγ (P48736 whole entry, species assumed): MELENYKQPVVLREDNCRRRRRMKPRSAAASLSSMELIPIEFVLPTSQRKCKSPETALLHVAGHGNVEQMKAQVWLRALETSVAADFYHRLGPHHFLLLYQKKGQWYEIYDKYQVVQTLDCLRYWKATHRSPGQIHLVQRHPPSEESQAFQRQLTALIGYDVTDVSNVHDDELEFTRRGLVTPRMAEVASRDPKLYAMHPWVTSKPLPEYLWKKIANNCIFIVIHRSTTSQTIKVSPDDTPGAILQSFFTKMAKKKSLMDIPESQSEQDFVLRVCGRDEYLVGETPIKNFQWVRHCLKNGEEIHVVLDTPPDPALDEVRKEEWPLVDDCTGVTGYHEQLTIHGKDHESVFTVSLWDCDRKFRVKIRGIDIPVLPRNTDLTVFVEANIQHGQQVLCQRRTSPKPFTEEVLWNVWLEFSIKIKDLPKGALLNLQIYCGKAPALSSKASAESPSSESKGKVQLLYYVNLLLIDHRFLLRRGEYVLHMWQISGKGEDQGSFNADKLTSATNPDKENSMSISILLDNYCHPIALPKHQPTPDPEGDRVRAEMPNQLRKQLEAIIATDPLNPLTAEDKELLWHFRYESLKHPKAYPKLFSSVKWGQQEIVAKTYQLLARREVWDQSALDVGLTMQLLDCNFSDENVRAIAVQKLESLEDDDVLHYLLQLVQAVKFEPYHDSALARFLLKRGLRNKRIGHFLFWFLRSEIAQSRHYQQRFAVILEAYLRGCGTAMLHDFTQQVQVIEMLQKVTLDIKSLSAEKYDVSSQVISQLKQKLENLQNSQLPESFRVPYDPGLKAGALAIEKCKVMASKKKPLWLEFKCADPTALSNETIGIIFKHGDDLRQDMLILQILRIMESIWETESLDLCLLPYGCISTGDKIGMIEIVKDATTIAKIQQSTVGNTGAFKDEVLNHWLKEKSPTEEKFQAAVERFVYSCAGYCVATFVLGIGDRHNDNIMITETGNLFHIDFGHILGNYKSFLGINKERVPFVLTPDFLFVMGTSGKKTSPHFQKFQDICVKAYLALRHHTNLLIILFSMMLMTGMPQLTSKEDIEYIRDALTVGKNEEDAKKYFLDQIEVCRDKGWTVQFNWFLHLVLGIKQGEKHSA

Compound	IC50 (mTOR)	IC50 (PI3Kγ)	IC50 (PI3Kα)
1-cyclopropyl-3-[(2Z)-2-{[1-methyl-4-(8-oxa-3-azabicyclo[3.2.1]oct-3-yl)-1H-pyrrolo[2,3-b]pyridin-3-yl]methylidene}-3-oxo-2,3-dihydro-1-benzofuran-5-yl]urea [Compound 237]	23 nM	2130 nM	289 nM
Cn1cc(C=C2Oc3cc(O)cc(O)c3C2=O)c2cccnc21 [Compound 1, 4,6-dihydroxy-2-[(1-methyl-1H-pyrrolo[2,3-b]pyridin-3-yl)methylene]-1-benzofuran-3(2H)-one]	41.5 nM	168 nM	64 nM
Cn1cc(C=C2Oc3c(ccc(O)c3O)C2=O)c2cccnc21 [Compound 2, 6,7-dihydroxy-2-[(1-methyl-1H-pyrrolo[2,3-b]pyridin-3-yl)methylene]-1-benzofuran-3(2H)-one]			2340 nM
COc1ccc2c(n1)c(C=C1Oc3cc(O)cc(O)c3C1=O)cn2C [Compound 3, 4,6-dihydroxy-2-[(5-methoxy-1-methyl-1H-pyrrolo[3,2-b]pyridin-3-yl)methylene]-1-benzofuran-3(2H)-one]	685 nM	> 10000 nM	506 nM
COc1ccc2c(n1)c(C=C1Oc3c(ccc(O)c3O)C1=O)cn2C [Compound 4, 6,7-dihydroxy-2-[(5-methoxy-1-methyl-1H-pyrrolo[3,2-b]pyridin-3-yl)methylene]-1-benzofuran-3(2H)-one]		8500 nM	676 nM
COc1ccc2c(n1)c(C=C1Oc3cccc(O)c3C1=O)cn2C [Compound 5, 4-hydroxy-2-[(5-methoxy-1-methyl-1H-pyrrolo[3,2-b]pyridin-3-yl)methylene]-1-benzofuran-3(2H)-one]	> 20000 nM	> 10000 nM	3930 nM
CN1CCN(CCCn2cc(C=C3Oc4cc(O)cc(O)c4C3=O)c3cccnc32)CC1 [Compound 6, 4,6-dihydroxy-2-({1-[3-(4-methylpiperazin-1-yl)propyl]-1H-pyrrolo[2,3-b]pyridin-3-yl}methylene)-1-benzofuran-3(2H)-one]		> 10000 nM	5890 nM
O=C1C(=Cc2cn(CCCN3CCOCC3)c3ncccc23)Oc2cc(O)cc(O)c21 [Compound 7, 4,6-dihydroxy-2-{[1-(3-morpholin-4-ylpropyl)-1H-pyrrolo[2,3-b]pyridin-3-yl]methylene}-1-benzofuran-3(2H)-one]		> 10000 nM	921 nM
CN1CCN(CCCn2cc(C=C3Oc4c(ccc(O)c4O)C3=O)c3cccnc32)CC1 [Compound 8, 6,7-dihydroxy-2-({1-[3-(4-methylpiperazin-1-yl)propyl]-1H-pyrrolo[2,3-b]pyridin-3-yl}methylene)-1-benzofuran-3(2H)-one]		9000 nM	203 nM
O=C1C(=Cc2cn(CCCN3CCOCC3)c3ncccc23)Oc2c1ccc(O)c2O [Compound 9, 6,7-dihydroxy-2-{[1-(3-morpholin-4-ylpropyl)-1H-pyrrolo[2,3-b]pyridin-3-yl]methylene}-1-benzofuran-3(2H)-one]		9170 nM	135 nM
O=C1C(=Cc2cn(CCCN3CCN(CCO)CC3)c3ncccc23)Oc2c1ccc(O)c2O [Compound 10, 6,7-dihydroxy-2-[(1-{3-[4-(2-hydroxyethyl)piperazin-1-yl]propyl}-1H-pyrrolo[2,3-b]pyridin-3-yl)methylene]-1-benzofuran-3(2H)-one]		> 10000 nM	> 10000 nM
O=C1C(=Cc2c[nH]c3ncccc23)Oc2cc(O)cc(O)c21 [Compound 11, 4,6-dihydroxy-2-(1H-pyrrolo[2,3-b]pyridin-3-ylmethylene)-1-benzofuran-3(2H)-one]	1200 nM		525 nM
Cn1cc(/C=C2\Oc3cc(O)cc(O)c3C2=O)c2c(-c3ccccc3Cl)ccnc21 [Compound 12, (2Z)-2-{[4-(2-chlorophenyl)-1-methyl-1H-pyrrolo[2,3-b]pyridin-3-yl]methylene}-4,6-dihydroxy-1-benzofuran-3(2H)-one]	2.8 nM	270 nM	167 nM
Cn1cc(/C=C2\Oc3cc(O)cc(O)c3C2=O)c2c(-c3cccc(Cl)c3)ccnc21 [Compound 13, (2Z)-2-{[4-(3-chlorophenyl)-1-methyl-1H-pyrrolo[2,3-b]pyridin-3-yl]methylene}-4,6-dihydroxy-1-benzofuran-3(2H)-one]	1.2 nM	79 nM	116 nM
COc1ccccc1-c1ccnc2c1c(/C=C1\Oc3cc(O)cc(O)c3C1=O)cn2C [Compound 14, (2Z)-4,6-dihydroxy-2-{[4-(2-methoxyphenyl)-1-methyl-1H-pyrrolo[2,3-b]pyridin-3-yl]methylene}-1-benzofuran-3(2H)-one]	1.4 nM	220 nM	188 nM
Cn1cc(/C=C2\Oc3cc(O)cc(O)c3C2=O)c2c(-c3ccc(OC(F)(F)F)cc3)ccnc21 [Compound 15, (2Z)-4,6-dihydroxy-2-({1-methyl-4-[4-(trifluoromethoxy)phenyl]-1H-pyrrolo[2,3-b]pyridin-3-yl}methylene)-1-benzofuran-3(2H)-one]	1 nM		
Cn1cc(/C=C2\Oc3cc(O)cc(O)c3C2=O)c2c(-c3ccc(OCCn4ccnc4)cc3)ccnc21 [Compound 16, (2Z)-4,6-dihydroxy-2-[(4-{4-[2-(1H-imidazol-1-yl)ethoxy]phenyl}-1-methyl-1H-pyrrolo[2,3-b]pyridin-3-yl)methylene]-1-benzofuran-3(2H)-one]	5 nM	247 nM	24 nM
Cn1cc(/C=C2\Oc3cc(O)cc(O)c3C2=O)c2c(-c3ccc(S(N)(=O)=O)cc3)ccnc21 [Compound 17, 4-{3-[(Z)-(4,6-dihydroxy-3-oxo-1-benzofuran-2(3H)-ylidene)methyl]-1-methyl-1H-pyrrolo[2,3-b]pyridin-4-yl}benzenesulfonamide]	0.3 nM	57 nM	7 nM
Cn1cc(/C=C2\Oc3cc(O)cc(O)c3C2=O)c2c(-c3cccc(NS(C)(=O)=O)c3)ccnc21 [Compound 18, N-(3-{3-[(Z)-(4,6-dihydroxy-3-oxo-1-benzofuran-2(3H)-ylidene)methyl]-1-methyl-1H-pyrrolo[2,3-b]pyridin-4-yl}phenyl)methanesulfonamide]	2.7 nM	106 nM	19 nM
Cn1cc(/C=C2\Oc3cc(O)cc(O)c3C2=O)c2c(-c3ccc(O)cc3)ccnc21 [Compound 19, (2Z)-4,6-dihydroxy-2-{[4-(4-hydroxyphenyl)-1-methyl-1H-pyrrolo[2,3-b]pyridin-3-yl]methylene}-1-benzofuran-3(2H)-one]	0.5 nM	35 nM	14 nM
Cn1cc(/C=C2\Oc3cc(O)cc(O)c3C2=O)c2c(-c3ccc(C(N)=NO)cc3)ccnc21 [Compound 20, 4-{3-[(Z)-(4,6-dihydroxy-3-oxo-1-benzofuran-2(3H)-ylidene)methyl]-1-methyl-1H-pyrrolo[2,3-b]pyridin-4-yl}-N′-hydroxybenzenecarboximidamide]	0.2 nM	44 nM	6 nM
Cn1cc(/C=C2\Oc3cccc(O)c3C2=O)c2c(-c3cccc(S(N)(=O)=O)c3)ccnc21 [Compound 21, 3-{3-[(Z)-(4-hydroxy-3-oxo-1-benzofuran-2(3H)-ylidene)methyl]-1-methyl-1H-pyrrolo[2,3-b]pyridin-4-yl}benzenesulfonamide]	3.5 nM	140 nM	34 nM
CN1CCN(c2ccnc3c2c(/C=C2\Oc4cc(O)cc(O)c4C2=O)cn3C)CC1 [Compound 44, (2Z)-4,6-dihydroxy-2-{[1-methyl-4-(4-methylpiperazin-1-yl)-1H-pyrrolo[2,3-b]pyridin-3-yl]methylene}-1-benzofuran-3(2H)-one]		200 nM	44 nM
Cn1cc(/C=C2\Oc3cccc(O)c3C2=O)c2c(-c3ccc(C(=O)N4CCOCC4)cc3)ccnc21 [Compound 128, (2Z)-4-hydroxy-2-({1-methyl-4-[4-(morpholin-4-ylcarbonyl)phenyl]-1H-pyrrolo[2,3-b]pyridin-3-yl}methylene)-1-benzofuran-3(2H)-one]	0.5 nM		
CN(C)S(=O)(=O)c1ccc(-c2ccnc3c2c(/C=C2\Oc4cccc(O)c4C2=O)cn3C)cc1 [Compound 180, 4-{3-[(Z)-(4-hydroxy-3-oxo-1-benzofuran-2(3H)-ylidene)methyl]-1-methyl-1H-pyrrolo[2,3-b]pyridin-4-yl}-N,N-dimethylbenzenesulfonamide]	2.9 nM		
Cn1cc(/C=C2\Oc3cccc(O)c3C2=O)c2c(-c3ccc(C(=O)NCCO)cc3)ccnc21 [Compound 182, N-(2-hydroxyethyl)-4-{3-[(Z)-(4-hydroxy-3-oxo-1-benzofuran-2(3H)-ylidene)methyl]-1-methyl-1H-pyrrolo[2,3-b]pyridin-4-yl}benzamide]	1.6 nM		
CN(C)C(=O)CN(C)C(=O)C1CCN(c2ccnc3c2c(C=C2Oc4ccc(NC(=O)Nc5cccnc5)cc4C2=O)cn3C)CC1 [Compound 201, N-[2-(dimethylamino)-2-oxoethyl]-N-methyl-1-[1-methyl-3-({3-oxo-5-[(pyridin-3-ylcarbamoyl)amino]-1-benzofuran-2(3H)-ylidene}methyl)-1H-pyrrolo[2,3-b]pyridin-4-yl]piperidine-4-carboxamide]	7.7 nM		
Cn1cc(/C=C2\Oc3ccc(NC(=O)NC4CCCCC4)cc3C2=O)c2c(N3CC4CCC(C3)O4)ccnc21 [Compound 236, 1-cyclohexyl-3-[(2Z)-2-{[1-methyl-4-(8-oxa-3-azabicyclo[3.2.1]oct-3-yl)-1H-pyrrolo[2,3-b]pyridin-3-yl]methylidene}-3-oxo-2,3-dihydro-1-benzofuran-5-yl]urea]		2970 nM	1470 nM
Cn1cc(/C=C2\Oc3ccc(NC(=O)Nc4ccc(Cl)nc4)cc3C2=O)c2c(N3CC4CCC(C3)O4)ccnc21 [Compound 299, 1-(6-chloropyridin-3-yl)-3-[(2Z)-2-{[1-methyl-4-(8-oxa-3-azabicyclo[3.2.1]oct-3-yl)-1H-pyrrolo[2,3-b]pyridin-3-yl]methylidene}-3-oxo-2,3-dihydro-1-benzofuran-5-yl]urea]	69 nM		
